From ChEMBL document CHEMBL4619755 (J Nat Prod, 2020)
Active and inactive are the calls of the source. The calls are words filed in the database; no cut-off is given here.

How the values were obtained:
[1] = system: THP-1; assay: Inhibition of TNF-alpha secretion in LPS-stimulated human THP1 cells assessed as TNF-alpha level at 10 uM incubated for 1 hr followed by nigericin addition and measured after 1 hr by ELISA (reference value: 957.6 pg/mL); format: functional
[2] = system: THP-1; assay: Modulation of intracellular calcium release in LPS-stimulated human THP1 cells at 1 to 100 uM incubated for 1 hr followed by nigericin challenge and measured after 1 hr by Fluo-3dye based flow cytometric analysis; format: functional, cell-based
[3] = biological target: T1, P2X purinoceptor 7 (Homo sapiens) (UniProt Q99572); assay: Modulation of P2X7 receptor in nigericin-stimulated human THP1 cells assessed as intracellular potassium efflux at 10 uM incubated for 30 mins followed by 10 uM nigericin challenge and measured after 30 mins by Green-2 AM dye based flow cytometric analysis (reference value: 27.1%); format: cell-based; settings: THP-1
T1 sequence (whole entry): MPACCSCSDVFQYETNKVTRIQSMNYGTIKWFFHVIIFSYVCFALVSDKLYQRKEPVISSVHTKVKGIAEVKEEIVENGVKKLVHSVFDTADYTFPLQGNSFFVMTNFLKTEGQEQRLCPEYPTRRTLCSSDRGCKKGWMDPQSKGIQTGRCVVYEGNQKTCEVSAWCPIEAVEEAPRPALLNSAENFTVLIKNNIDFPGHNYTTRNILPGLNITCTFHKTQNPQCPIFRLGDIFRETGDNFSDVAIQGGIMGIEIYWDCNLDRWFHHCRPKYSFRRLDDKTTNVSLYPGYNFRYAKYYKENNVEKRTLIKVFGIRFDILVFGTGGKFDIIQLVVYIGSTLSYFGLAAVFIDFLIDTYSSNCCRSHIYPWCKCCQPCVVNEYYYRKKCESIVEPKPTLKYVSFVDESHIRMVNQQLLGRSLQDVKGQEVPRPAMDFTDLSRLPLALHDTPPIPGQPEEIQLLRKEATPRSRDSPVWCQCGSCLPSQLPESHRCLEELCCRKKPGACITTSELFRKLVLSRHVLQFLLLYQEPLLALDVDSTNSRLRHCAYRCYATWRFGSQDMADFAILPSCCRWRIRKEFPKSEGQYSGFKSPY

[4] = system: THP-1; assay: Antiinflammatory activity in human THP1 cells assessed as reduction in LPS-induced IL-1beta secretion at 0.1 to 10 uM incubated for 1 hr followed by LPS stimulation and measured after 24 hrs by ELISA; format: functional, cell-based
[5] = biological target: NACHT, LRR and PYD domains-containing protein 3 (Homo sapiens) (UniProt Q96P20); assay: Inhibition of NLRP3 inflammasome activation in LPS-stimulated human THP1 cells assessed as reduction in IL-1beta secretion at 10 uM incubated for 1 hr followed by nigericin addition and measured after 1 hr by ELISA relative to control; format: cell-based; settings: THP-1
Chain of NACHT, LRR and PYD domains-containing protein 3 (Homo sapiens) (Q96P20 whole entry, the tested form may be a part): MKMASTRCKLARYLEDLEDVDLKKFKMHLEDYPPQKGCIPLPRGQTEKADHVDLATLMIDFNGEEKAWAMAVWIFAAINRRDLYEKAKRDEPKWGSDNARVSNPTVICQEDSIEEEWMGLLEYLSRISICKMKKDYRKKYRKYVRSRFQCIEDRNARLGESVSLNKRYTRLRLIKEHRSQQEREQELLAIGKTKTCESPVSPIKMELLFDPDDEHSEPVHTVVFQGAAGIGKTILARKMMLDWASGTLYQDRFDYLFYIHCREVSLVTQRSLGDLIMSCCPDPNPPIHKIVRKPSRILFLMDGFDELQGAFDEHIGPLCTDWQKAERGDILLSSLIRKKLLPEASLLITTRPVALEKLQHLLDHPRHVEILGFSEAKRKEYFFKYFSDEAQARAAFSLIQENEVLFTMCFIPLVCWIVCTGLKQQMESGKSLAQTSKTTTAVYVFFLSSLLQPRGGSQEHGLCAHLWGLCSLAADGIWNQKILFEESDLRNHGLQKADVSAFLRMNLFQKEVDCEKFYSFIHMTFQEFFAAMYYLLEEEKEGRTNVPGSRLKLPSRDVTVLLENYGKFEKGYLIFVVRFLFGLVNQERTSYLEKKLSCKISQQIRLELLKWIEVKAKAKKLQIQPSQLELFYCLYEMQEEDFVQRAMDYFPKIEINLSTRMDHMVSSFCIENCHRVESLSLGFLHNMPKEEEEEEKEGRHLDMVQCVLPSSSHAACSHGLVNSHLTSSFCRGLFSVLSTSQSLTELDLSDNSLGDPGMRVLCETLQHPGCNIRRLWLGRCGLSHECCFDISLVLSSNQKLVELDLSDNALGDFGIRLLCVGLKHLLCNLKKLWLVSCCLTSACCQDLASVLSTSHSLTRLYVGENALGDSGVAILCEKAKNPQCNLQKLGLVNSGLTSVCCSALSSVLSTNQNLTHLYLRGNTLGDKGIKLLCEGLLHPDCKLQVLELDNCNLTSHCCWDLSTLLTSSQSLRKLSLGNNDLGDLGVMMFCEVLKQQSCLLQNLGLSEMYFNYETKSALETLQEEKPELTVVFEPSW

[6] = biological target: T1, P2X purinoceptor 7 (Homo sapiens); assay: Modulation of P2X7 receptor in LPS-stimulated human THP1 cells assessed as LPS-nigericin-stimulated intracellular potassium efflux at 1 uM incubated for 1 hr followed by nigericin challenge and measured after 1 hr by Green-2 AM dye based flow cytometric analysis (reference value: 29%); format: cell-based; settings: THP-1
[7] = biological target: T1, P2X purinoceptor 7 (Homo sapiens); assay: Modulation of P2X7 receptor in LPS-stimulated human THP1 cells assessed as LPS-nigericin-stimulated intracellular potassium efflux at 10 uM incubated for 1 hr followed by nigericin challenge and measured after 1 hr by Green-2 AM dye based flow cytometric analysis (reference value: 29%); format: cell-based; settings: THP-1
[8] = Cytotoxicity against human THP1 cells assessed as cell viability at 0.1 to 100 uM after 24 hrs in presence of LPS by CellTiter-Glo luminescent cell viability assay relative to control; format: cell-based; settings: THP-1 cells, read-out: Activity
[9] = biological target: T1, P2X purinoceptor 7 (Homo sapiens); assay: Modulation of P2X7 receptor in nigericin-stimulated human THP1 cells assessed as intracellular potassium efflux at 10 uM incubated for 30 mins followed by 1 uM nigericin challenge and measured after 30 mins by Green-2 AM dye based flow cytometric analysis (reference value: 27.1%); format: cell-based; settings: THP-1
[10] = biological target: NACHT, LRR and PYD domains-containing protein 3 (Homo sapiens) (UniProt Q96P20); assay: Inhibition of NLRP3 inflammasome activation in LPS-stimulated human THP1 cells assessed as reduction in IL-1beta secretion at 1 uM incubated for 1 hr followed by nigericin addition and measured after 1 hr by ELISA relative to control; format: cell-based; settings: THP-1
[11] = biological target: T1, P2X purinoceptor 7 (Homo sapiens); assay: Modulation of P2X7 receptor in nigericin-stimulated human THP1 cells assessed as intracellular potassium efflux at 10 uM incubated for 30 mins followed by 5 uM nigericin challenge and measured after 30 mins by Green-2 AM dye based flow cytometric analysis (reference value: 27.1%); format: cell-based; settings: THP-1
[12] = Cytotoxicity against human THP1 cells assessed as cell viability at 1 uM after 24 hrs by CellTiter-Glo luminescent cell viability assay relative to control; format: cell-based; settings: THP-1 cells, read-out: Activity
[13] = Cytotoxicity against human THP1 cells assessed as cell viability at 0.1 uM after 24 hrs by CellTiter-Glo luminescent cell viability assay relative to control; format: cell-based; settings: THP-1 cells, read-out: Activity
[14] = biological target: NACHT, LRR and PYD domains-containing protein 3 (Homo sapiens) (UniProt Q96P20); assay: Inhibition of NLRP3 inflammasome activation in LPS-stimulated human THP1 cells assessed as reduction in IL-1beta secretion at 0.1 uM incubated for 1 hr followed by nigericin addition and measured after 1 hr by ELISA relative to control; format: cell-based; settings: THP-1
[15] = system: THP-1; assay: Antiinflammatory activity in LPS-induced human THP1 cells assessed as IL-1beta secretion at 10 uM incubated for 1 hr followed by LPS stimulation and measured after 24 hrs by ELISA (reference value: 51.2 pg/mL); format: functional
[16] = Cytotoxicity against human THP1 cells assessed as cell viability at 100 uM after 24 hrs by CellTiter-Glo luminescent cell viability assay relative to control; format: cell-based; settings: THP-1 cells, read-out: Activity
[17] = Cytotoxicity against human THP1 cells assessed as cell viability at 10 uM after 24 hrs by CellTiter-Glo luminescent cell viability assay relative to control; format: cell-based; settings: THP-1 cells, read-out: Activity

Row | Structure (SMILES) | Activity [1] | Activity [2] | Activity [3] | Activity [4] | inhibition [5] | Activity [6] | Activity [7] | viability at 24 h, up to 100 µM [8] | Activity [9] | inhibition [10] | Activity [11] | viability at 24 h, 1 µM [12] | viability at 24 h, 0.1 µM [13] | inhibition [14] | Activity [15] | viability at 24 h, 100 µM [16] | viability at 24 h, 10 µM [17]
1 | CC(C)(O)c1coc(S(=O)(=O)NC(=O)Nc2c3c(cc4c2CCC4)CCC3)c1 | 957.6 pg/mL |  |  |  |  |  |  |  |  |  |  |  |  |  |  |  | 
2 | C=C(C)[C@@H]1CCC(C)=C[C@H]1c1c(O)cc(CCCCC)cc1O [CANNABIDIOL] | 661.9 pg/mL | inactive | 12.4% | inactive | 83.1% | 20% | 16% | > 97% | 16.1% | 64.1% | 13.1% | 97.6% | 96.5% | 63.9% | 32.9 pg/mL | 99.9% | 103%
3 | C=C1C(=O)[C@]23[C@H](O)[C@H]1CC[C@H]2[C@@]12CO[C@]3(O)[C@@H](O)[C@@H]1C(C)(C)CC[C@@H]2O [ORIDONIN] | 777.2 pg/mL |  |  |  |  |  |  |  |  |  |  |  |  |  |  |  | 
